Like-named read-outs stand apart in the source and are kept apart here.
Biological target: T1, recombinant human cGAS (aa147-522) (Homo sapiens, UniProt Q8N884)
T1 construct: recombinant human cGAS (aa147-522); His6-SUMO (cleaved yes); made in house; host or cells: E. coli BL21/pLys
Test: In vitro inhibition assay of cGAS activity (ATP consumption, KinaseGlo Max)
Format: biochemical
In short: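 De-tagged recombinant human cGAS (aa147-522, 1.5 μg/mL) was incubated 20 min at 37 °C with herring testis DNA, 6.6 μM ATP and 0.1 mM GTP in Tris pH 7.5/MgCl2 buffer plus serial compound dilutions. Remaining ATP was read by KinaseGlo Max luminescence, and IC50 was fitted from % ATP consumption versus log concentration.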

[1] = Table 2, read-out: cGAS Inhibition Results IC50
[2] = Table 3, read-out: cGAS Inhibition Results IC50

T1 sequence (Q8N884 147-522): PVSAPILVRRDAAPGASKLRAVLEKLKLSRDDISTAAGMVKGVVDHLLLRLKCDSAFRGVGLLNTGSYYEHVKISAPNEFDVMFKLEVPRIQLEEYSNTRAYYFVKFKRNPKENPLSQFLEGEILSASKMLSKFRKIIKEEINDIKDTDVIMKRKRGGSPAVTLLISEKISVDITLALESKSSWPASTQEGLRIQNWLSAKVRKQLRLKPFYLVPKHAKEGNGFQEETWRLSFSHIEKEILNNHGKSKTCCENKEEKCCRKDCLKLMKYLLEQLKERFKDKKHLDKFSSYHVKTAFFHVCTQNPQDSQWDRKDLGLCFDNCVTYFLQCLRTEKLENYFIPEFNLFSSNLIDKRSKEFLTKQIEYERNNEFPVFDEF

Row | SMILES | IC50 [1] | IC50 [2]
1 | COc1ccc(-c2cc(-n3ccnc3)c3ccc(Cl)cc3n2)cc1 [I-2, 7-chloro-4-(1H-imidazol-1-yl)-2-(4-methoxyphenyl)quinoline] | 2 to 30 µM | 
2 | Clc1ccc2c(-c3ccn[nH]3)cc(-c3ccccc3)nc2c1 [I-68] | > 30 µM | 
3 | Clc1ccc2c(-n3ccnc3)cc(-c3ccccc3)nc2c1 [I-1] | 2 to 30 µM | 
4 | O=C(O)c1cc(O)cc(-c2cc(-n3ccnc3)c3ccc(Cl)cc3n2)c1 [I-26, 3-(7-chloro-4-(1H-imidazol-1-yl)quinolin-2-yl)-5-hydroxybenzoic acid] | < 2 µM | 
5 | O=C(O)[C@@H]1C[C@H](Oc2ccccc2)CN1c1cc(-c2cn[nH]c2)c2ccc(Cl)c(Cl)c2n1 [I-360] | < 2 µM | 
6 | Clc1ccc2c(-n3ccnc3)cc(N3CCC(c4nn[nH]n4)C3)nc2c1 (stereo not drawn) [I-155] | 2 to 30 µM | 
7 | O=C(O)C(Cc1ccc(O)cc1)Nc1cc(-n2ccnc2)c2ccc(Cl)c(Cl)c2n1 (stereo not drawn) [I-169] | < 2 µM | 
8 | CN(CC(=O)O)c1cc(-n2ccnc2)c2ccc(Cl)cc2n1 [I-167] | < 2 µM | 
9 | CC(C)N(CCCOc1ccncc1C(=O)O)c1cc(-n2ccnc2)c2ccc(Cl)c(Cl)c2n1 [I-851] |  | 2 to 30 µM
10 | NS(=O)(=O)CC(Cc1ccccc1)Nc1cc(-n2ccnc2)c2ccc(Cl)c(Cl)c2n1 (stereo not drawn) [I-208, 2-((7,8-dichloro-4-(1H-imidazol-1-yl)quinolin-2-yl)amino)-3-phenylpropane-1-sulfonamide] | 2 to 30 µM | 
11 | CN(CCS(N)(=O)=O)c1ccc2ccc(Cl)c(Cl)c2n1 [I-161] | > 30 µM | 
12 | c1ccc2c(-n3ccnc3)ccnc2c1 [I-410] | > 30 µM | 

The next lines start with the values.

Row | IC50 [1] | IC50 [2] | SMILES
13 | 2 to 30 µM |  | Clc1ccc2c(-n3ccnc3)cc(NCCN3CCOCC3)nc2c1Cl [I-215]
14 | < 2 µM |  | O=C(O)CCNC(=O)[C@@H]1CN(c2cc(-c3cn[nH]c3)c3ccc(Cl)c(Cl)c3n2)CCO1 [I-342]
15 |  | < 2 µM | O=[PH](O)OC[C@@H]1CCCN1c1cc(-n2ccnc2)c2ccc(Cl)c(Cl)c2n1 [I-658, ((5)-1-(7,8-dichloro-4-(1H-imidazol-1-yl)quinolin-2-yl)pyrrolidin-2-yl)methyl hydrogen phosphonate]
16 |  | < 2 µM | CN(CCNC(=O)C1CCCC1C(=O)O)c1cc(-n2ccnc2)c2ccc(Cl)c(Cl)c2n1 (stereo not drawn) [I-622]
17 | < 2 µM |  | O[C@H]1CCCN(c2cc(-n3ccnc3)c3ccc(Cl)c(Cl)c3n2)C1 [I-133]
18 | 2 to 30 µM |  | NS(=O)(=O)O[C@H]1CCCN(c2cc(-n3ccnc3)c3ccc(Cl)c(Cl)c3n2)C1 [I-119, (S)-1-(7,8-dichloro-4-(1H-imidazol-1-yl)quinolin-2-yl)piperidin-3-yl sulfamate]
19 |  | < 2 µM | O=C(O)[C@@H]1CSCN1c1cc(-n2ccnc2)c2ccc(Cl)c(Cl)c2n1 [I-485]
20 | < 2 µM |  | O=C(O)CCS(=O)(=O)NC[C@@H]1CCCN1c1cc(-n2ccnc2)c2ccc(Cl)c(Cl)c2n1 [I-335]
21 | > 30 µM |  | Cc1cc(NCC(N)=O)c2ccc(Cl)c(Cl)c2n1 [I-313]
22 | < 2 µM |  | COc1ccc(-c2cc(-n3ccnc3)c3ccc(Cl)c(Cl)c3n2)cc1O [I-41]
23 | < 2 µM |  | O=S(=O)(O)CCCNc1cc(-n2ccnc2)c2ccc(Cl)c(Cl)c2n1 [I-160]
24 |  | < 2 µM | O=C(NC[C@@H]1CCCN1c1cc(-n2ccnc2)c2ccc(Cl)c(Cl)c2n1)c1cc(O)no1 [I-641]
25 | > 30 µM |  | Cc1cc(N2CCS(=O)(=O)CC2)c2ccc(Cl)c(Cl)c2n1 [I-303]
26 | 2 to 30 µM |  | O=S(=O)(O)CCN(Cc1ccccc1)c1cc(-n2ccnc2)c2ccc(Cl)c(Cl)c2n1 [I-164, 2-(benzyl(7,8-dichloro-4-(1H-imidazol-1-yl)quinolin-2-yl)amino)ethane-1-sulfonic acid]
27 |  | < 2 µM | COCCS(=O)(=O)NCCN(C)c1cc(-n2ccnc2)c2ccc(Cl)c(Cl)c2n1 [I-610]
28 |  | < 2 µM | OC[C@@H]1CC(F)(F)CN1c1cc(-n2ccnc2)c2ccc(Cl)c(Cl)c2n1 [I-504]
29 | < 2 µM |  | O=C(CO)N1CCOC(CNc2cc(-c3cn[nH]c3)c3ccc(Cl)c(Cl)c3n2)C1 (stereo not drawn) [I-222]
30 | 2 to 30 µM |  | O=C(O)CNc1cc(-c2cn[nH]c2)c2ccc(Cl)c(Cl)c2n1 [I-177, (7,8-dichloro-4-(1H-pyrazol-4-yl)quinolin-2-yl)glycine]

Reference: US11873291B2, “Quinoline cGAS antagonist compounds” (ImmuneSensor Therapeutics, Inc., priority 2020, dated 2024)
